Consider 8 compounds from PubChem BioAssay (NCI).

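Grown in 96-well plates, cells were treated for 48 hours with each compound at five concentrations. Insufficient inhibition: endpoint recorded as highest concentration tested. Here, GI50 denotes the concentration required for 50% inhibition of growth. At the TGI there is no net growth.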

Common to all, as to experiment: NCI tumour cell line growth inhibition, 48 h
Test [1] relates to HS 578T breast.
For test [2], the system named is SF-268 CNS.
The test system of test [3] is LOX IMVI melanoma.
In test [4] the test system is SR leukemia.
Test [5] deals with MCF7 breast.
Test [6] relates to COLO 205 colon.
For test [7], the system named is SN12C renal.
Test [8] relates to PC-3 prostate.
Test [9] deals with NCI-H522 lung.
For test [10], the system named is UACC-257 melanoma.
Test [11] deals with MALME-3M melanoma.
Test [12] deals with OVCAR-3 ovarian.
In test [13] the test system is IGROV1 ovarian.
Test [14] deals with MDA-MB-231 breast.
Test [15] deals with M14 melanoma.
The test system of test [16] is RXF 393 renal.

For `S=c1sc2nc(Cl)nc(Cl)c2s1`, the TGI in test [1] came out at 60.4 µM; in [2], 34.4 µM; in test [3], 30.3 µM; in test [4], 21.2 µM; in [5] it was 25.2 µM; in test [6] it was 20.4 µM. For the same compound, the TGI in test [7] stood at 32.4 µM; in test [8] it was 27.9 µM; in [9], 25.2 µM; in test [10] it was 31.9 µM; in test [11], 23.2 µM; in [12], 25.2 µM. The TGI in test [13] amounted to 27.7 µM; in [14], 24.7 µM; in test [15] it was 16.9 µM; in test [16], 26 µM.

With `COc1cc(/C=C/c2cc(/C=C/c3ccc(O)c(OC)c3)oc(=O)c2)ccc1O`, the TGI was more than 85.3 µM in test [1]; more than 39.7 µM in test [2]; 15.7 µM in [3]; more than 31.2 µM in test [4]; more than 100 µM in test [5]; more than 73.2 µM in test [6]. In addition, the TGI in test [7] is more than 71.4 µM; in [8], 20.3 µM; in test [9], more than 23.9 µM; in test [10], more than 29.6 µM; in test [11] it was 10.7 µM; in [12], 5.68 µM. In addition, the TGI in test [13] is 19.9 µM; in test [14], more than 96.2 µM; in test [15], more than 100 µM; in test [16], 1.08 µM.

Consider `NCCN1CC2CCC(CC2)C1`, for which the TGI in [1], in [2], in test [3], in test [4], in [5] and in [6] was more than 10 µM throughout. In addition, the TGI in [7], in test [8], in test [9], in [10], in test [11] and in [12] was more than 10 µM each time. The TGI in test [13], in test [14], in test [15] and in test [16] was more than 10 µM in each case.

Regarding `CC(=O)OC1CC[C@]2(C)C3CC[C@@]4(C)C(CCC4[C@H](C)CCCC(C)C)[C@@H]3CCC2(Br)C1` (some centres undefined), the TGI in [1] worked out at 30.4 µM; in test [2] it was 28.1 µM; in [3], 29.4 µM; in test [4], 24.8 µM; in [5], 23.3 µM; in test [6] it was 20.9 µM. Besides, the TGI is more than 50 µM in [7]; 37.7 µM in test [8]; 29.1 µM in [9]; more than 50 µM in test [10]; 23.2 µM in test [11]; 42.5 µM in [12]. The TGI is 29.7 µM in test [13], 38 µM in test [14], more than 50 µM in test [15] and 21.9 µM in test [16].

As to `C=C1C(=O)O[C@H]2[C@H]1CC(=O)/C(C)=C/CC[C@@]1(C)O[C@@H]21`, the TGI in test [1] worked out at 8.62 µM; in test [2], 13.4 µM; in test [3], 1.47 µM; in test [4], 7.74 µM; in [5], 1.99 µM; in [6], 0.708 µM. In addition, the TGI in test [7] amounted to 3.93 µM; in test [8] it was 6.1 µM; in test [9] it was 0.729 µM; in [10] it was 5.57 µM; in test [11], 3.48 µM; in [12], 0.6 µM. For the same compound, the TGI turned out to be 6.27 µM in test [13], 3.5 µM in [14], 1.57 µM in test [15] and 1.08 µM in [16]. In [10], the GI50 is 2 µM.

With `Cc1ccc(/C=C/C(=N/NC(=O)N/N=C(/C=C/c2ccc(C)cc2)C(C)(C)CN2CCCCC2)C(C)(C)CN2CCCCC2)cc1`, the TGI came to 3.29 µM in test [1]; 4.64 µM in [2]; 2.64 µM in test [3]; 0.359 µM in test [4]; 2.83 µM in test [5]; 3.07 µM in test [6]. The TGI in test [7] was determined as 3.27 µM; in test [8] it was 3.52 µM; in test [9] it was 3.04 µM; in [10] it was 3.1 µM; in test [11], 3.07 µM; in test [12], 3.07 µM. The TGI is 3.71 µM in test [13], 3.22 µM in [14], 1.8 µM in test [15] and 2.68 µM in [16].

Regarding `Cc1c(C)c(S(=O)(=O)N(CCCN)OCCCN)c(C)c2c1OC(C)(C)C2`, the TGI in [1] was 40.3 µM; in [2], more than 100 µM; in [3] it was 34.9 µM; in [4], more than 100 µM; in [5], 38.4 µM; in test [6] it was 32.5 µM. The TGI is more than 100 µM in [7]; 43.3 µM in test [8]; 30.6 µM in test [9]; 89.3 µM in [10]; 42.1 µM in [11]; more than 100 µM in [12]. For the same compound, the TGI stood at 45.8 µM in test [13], 33.3 µM in [14], 34.1 µM in test [15] and 48.9 µM in [16].

Turning to `COc1ccc(C2SC(C)C(=O)N2c2nc(-c3nc(-c4ccc(Cl)cc4)cs3)cs2)cc1` (centres undefined), the TGI in [1], in [2], in [3], in test [4], in test [5] and in [6] was more than 100 µM throughout. For the same compound, the TGI in test [7], in test [8], in test [9], in test [10], in test [11] and in test [12] was more than 100 µM in each case. For the same compound, the TGI in test [13], in test [14], in test [15] and in test [16] was more than 100 µM in each case.
